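Cultured in 96-well plates, cells were exposed to test compound for 48 hours across five concentrations. TGI is the concentration that stops growth completely.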
Key:
Experiment in all cases: NCI-60 cell line screen, 48 h
HS 578T breast = test system: HS 578T breast
MOLT-4 leukemia = test system: MOLT-4 leukemia
SK-MEL-5 melanoma = test system: SK-MEL-5 melanoma
SK-OV-3 ovarian = test system: SK-OV-3 ovarian
HT29 colon = test system: HT29 colon
NCI-H226 lung = test system: NCI-H226 lung
DU-145 prostate = test system: DU-145 prostate
HOP-62 NSCLC = test system: HOP-62 NSCLC
MDA-N = test system: MDA-N
NCI-H23 lung = test system: NCI-H23 lung

C[C@]12CC[C@H](O)CC1=CC[C@@H]1[C@@H]2CC[C@]2(C)C(=O)/C(=C/c3ccc([N+](=O)[O-])cc3)C[C@@H]12
TGI (HS 578T breast): 29.5 µM | TGI (MOLT-4 leukemia): > 100 µM | TGI (SK-MEL-5 melanoma): 43.5 µM | TGI (SK-OV-3 ovarian): 22.6 µM | TGI (HT29 colon): > 100 µM | TGI (NCI-H226 lung): 10.2 µM | TGI (DU-145 prostate): 44.9 µM | TGI (HOP-62 NSCLC): 17 µM | TGI (MDA-N): > 100 µM | TGI (NCI-H23 lung): 57 µM

Reference: PubChem BioAssay (NCI)
